Activity calls are given as the source filed them.
What was measured:
[1] = viability loss in MITF-independent A375 cells – cell-based, CellTiter-Glo luminescence, dry powder, set 6, counter-screen for MITF inhibitor project, dose response (AID 624488); type: functional; conditions: A-375
[2] = target: T1, Sentrin-specific protease 6 (Homo sapiens, UniProt Q9GZR1); type: functional;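 further: Luminescence-based dose-response confirmatory assay of SENP6 inhibition, following up an ultra-high-throughput screen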
T1 sequence (Q9GZR1 whole entry): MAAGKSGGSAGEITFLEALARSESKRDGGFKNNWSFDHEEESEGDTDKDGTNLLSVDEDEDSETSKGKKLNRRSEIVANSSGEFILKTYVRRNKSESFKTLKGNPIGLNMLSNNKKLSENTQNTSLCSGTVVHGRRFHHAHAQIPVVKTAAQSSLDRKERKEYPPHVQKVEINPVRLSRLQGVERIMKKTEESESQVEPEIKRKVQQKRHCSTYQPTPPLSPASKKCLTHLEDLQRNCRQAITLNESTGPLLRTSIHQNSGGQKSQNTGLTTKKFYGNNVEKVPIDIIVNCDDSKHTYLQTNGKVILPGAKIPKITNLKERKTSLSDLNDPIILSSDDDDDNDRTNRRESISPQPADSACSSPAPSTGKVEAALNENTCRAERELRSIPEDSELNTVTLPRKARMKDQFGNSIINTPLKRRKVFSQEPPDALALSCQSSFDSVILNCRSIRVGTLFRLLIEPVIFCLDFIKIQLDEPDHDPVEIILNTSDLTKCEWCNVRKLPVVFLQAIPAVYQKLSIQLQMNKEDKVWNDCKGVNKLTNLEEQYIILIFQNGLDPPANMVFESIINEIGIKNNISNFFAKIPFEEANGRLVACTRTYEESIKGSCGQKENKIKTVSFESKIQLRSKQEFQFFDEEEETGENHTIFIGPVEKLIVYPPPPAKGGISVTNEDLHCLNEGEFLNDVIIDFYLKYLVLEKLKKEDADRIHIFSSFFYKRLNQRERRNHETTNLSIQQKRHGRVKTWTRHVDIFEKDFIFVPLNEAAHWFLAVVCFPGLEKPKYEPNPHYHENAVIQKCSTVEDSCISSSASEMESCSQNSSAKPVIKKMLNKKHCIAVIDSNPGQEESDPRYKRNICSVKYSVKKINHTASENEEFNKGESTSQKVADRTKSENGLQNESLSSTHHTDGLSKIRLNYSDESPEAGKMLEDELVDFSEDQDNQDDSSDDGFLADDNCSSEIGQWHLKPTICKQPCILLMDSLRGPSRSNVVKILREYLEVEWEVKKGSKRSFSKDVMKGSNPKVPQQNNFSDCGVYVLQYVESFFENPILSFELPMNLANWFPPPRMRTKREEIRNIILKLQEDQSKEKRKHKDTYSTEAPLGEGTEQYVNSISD

[3] = target: T2, Dual specificity protein phosphatase 6 (Rattus norvegicus, UniProt Q64346); assay: inhibition of rat DUSP6 enzyme activity – biochemical, in vitro, primary screen (AID 425)
T2 sequence (Q64346 whole entry): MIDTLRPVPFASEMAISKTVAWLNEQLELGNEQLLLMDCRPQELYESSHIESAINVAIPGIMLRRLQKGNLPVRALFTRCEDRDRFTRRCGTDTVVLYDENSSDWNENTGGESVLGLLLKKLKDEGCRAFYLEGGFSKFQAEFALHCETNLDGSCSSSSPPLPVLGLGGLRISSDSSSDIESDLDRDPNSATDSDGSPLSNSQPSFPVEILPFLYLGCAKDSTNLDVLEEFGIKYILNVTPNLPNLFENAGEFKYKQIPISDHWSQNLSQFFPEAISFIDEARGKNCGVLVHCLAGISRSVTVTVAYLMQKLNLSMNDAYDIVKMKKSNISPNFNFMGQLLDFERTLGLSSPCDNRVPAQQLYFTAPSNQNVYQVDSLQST

[4] = target: Intestinal-type alkaline phosphatase (Homo sapiens, UniProt P09923); assay: activation of human intestinal alkaline phosphatase – biochemical, dose response (AID 488873); type: functional
Intestinal-type alkaline phosphatase, sequence (P09923 whole entry): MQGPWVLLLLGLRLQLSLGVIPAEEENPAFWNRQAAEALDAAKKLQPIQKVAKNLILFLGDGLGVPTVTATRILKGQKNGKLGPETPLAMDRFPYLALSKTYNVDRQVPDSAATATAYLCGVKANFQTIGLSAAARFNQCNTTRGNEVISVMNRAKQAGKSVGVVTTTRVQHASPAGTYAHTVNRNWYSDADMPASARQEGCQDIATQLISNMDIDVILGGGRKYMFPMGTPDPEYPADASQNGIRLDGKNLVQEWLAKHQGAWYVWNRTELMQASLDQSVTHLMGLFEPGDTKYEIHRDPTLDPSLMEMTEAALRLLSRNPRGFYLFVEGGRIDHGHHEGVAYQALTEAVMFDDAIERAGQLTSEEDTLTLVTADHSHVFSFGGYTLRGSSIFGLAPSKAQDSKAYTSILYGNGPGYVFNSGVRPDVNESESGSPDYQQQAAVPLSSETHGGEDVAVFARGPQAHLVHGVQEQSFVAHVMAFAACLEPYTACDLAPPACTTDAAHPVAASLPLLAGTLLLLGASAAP

[5] = viability of HCT116 lacking mutant beta-catenin – cell-based, human colon tumor, dose response (AID 1045); type: functional;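 further: HCT116 colon tumor cells with beta catenin knocked out; cells exposed to compound for 60 hours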
[6] = target: Ephrin type-A receptor 4 (Mus musculus, UniProt Q03137); assay: EphA4 ligand-binding antagonists – biochemical, colorimetric, mouse EphA4, primary screen (AID 689); type: functional
[7] = target: Dual specificity tyrosine-phosphorylation-regulated kinase 4 (Homo sapiens, UniProt Q9NR20); type: functional
Dual specificity tyrosine-phosphorylation-regulated kinase 4, sequence (Q9NR20 whole entry): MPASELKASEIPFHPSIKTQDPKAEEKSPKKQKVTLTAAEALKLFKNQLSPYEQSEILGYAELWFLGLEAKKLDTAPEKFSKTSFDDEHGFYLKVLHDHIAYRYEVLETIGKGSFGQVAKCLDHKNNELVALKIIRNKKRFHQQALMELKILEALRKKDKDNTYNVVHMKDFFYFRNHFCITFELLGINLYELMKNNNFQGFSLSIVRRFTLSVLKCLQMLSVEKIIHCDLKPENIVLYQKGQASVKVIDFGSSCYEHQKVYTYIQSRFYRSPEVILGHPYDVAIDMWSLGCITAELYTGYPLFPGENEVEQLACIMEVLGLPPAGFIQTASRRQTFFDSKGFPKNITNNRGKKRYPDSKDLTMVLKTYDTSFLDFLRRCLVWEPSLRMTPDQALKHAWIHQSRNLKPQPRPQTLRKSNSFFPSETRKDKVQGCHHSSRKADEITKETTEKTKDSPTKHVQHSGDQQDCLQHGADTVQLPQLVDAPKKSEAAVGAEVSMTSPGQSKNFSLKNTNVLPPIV

[8] = target: Mitogen-activated protein kinase 1 (Homo sapiens, UniProt P28482); type: functional
Mitogen-activated protein kinase 1, sequence (P28482 whole entry): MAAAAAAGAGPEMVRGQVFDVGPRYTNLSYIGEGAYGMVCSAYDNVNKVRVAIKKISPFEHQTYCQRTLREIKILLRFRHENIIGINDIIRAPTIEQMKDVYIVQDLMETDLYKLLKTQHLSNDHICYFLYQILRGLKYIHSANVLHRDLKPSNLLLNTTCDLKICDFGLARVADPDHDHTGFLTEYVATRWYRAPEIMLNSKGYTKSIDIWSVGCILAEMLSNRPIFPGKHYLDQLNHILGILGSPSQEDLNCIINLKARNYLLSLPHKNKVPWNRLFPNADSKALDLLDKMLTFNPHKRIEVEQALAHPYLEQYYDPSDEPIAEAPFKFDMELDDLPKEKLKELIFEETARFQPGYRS

[9] = target: Dual specificity tyrosine-phosphorylation-regulated kinase 3 (Homo sapiens, UniProt O43781); type: functional;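 further: measured as one member of a broad kinase panel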
[10] = target: MAP/microtubule affinity-regulating kinase 3 (Homo sapiens, UniProt P27448); type: functional;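 further: MARK3 affinity measured as one member of a kinome panel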
[11] = target: Serine/threonine-protein kinase TAO1 (Homo sapiens, UniProt Q7L7X3); type: functional
[12] = target: Serine/threonine-protein kinase D2 (Homo sapiens, UniProt Q9BZL6); type: functional;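 further: measured against PRKD2 as one member of a kinome-wide kinase profiling panel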
Serine/threonine-protein kinase D2, sequence (Q9BZL6 whole entry): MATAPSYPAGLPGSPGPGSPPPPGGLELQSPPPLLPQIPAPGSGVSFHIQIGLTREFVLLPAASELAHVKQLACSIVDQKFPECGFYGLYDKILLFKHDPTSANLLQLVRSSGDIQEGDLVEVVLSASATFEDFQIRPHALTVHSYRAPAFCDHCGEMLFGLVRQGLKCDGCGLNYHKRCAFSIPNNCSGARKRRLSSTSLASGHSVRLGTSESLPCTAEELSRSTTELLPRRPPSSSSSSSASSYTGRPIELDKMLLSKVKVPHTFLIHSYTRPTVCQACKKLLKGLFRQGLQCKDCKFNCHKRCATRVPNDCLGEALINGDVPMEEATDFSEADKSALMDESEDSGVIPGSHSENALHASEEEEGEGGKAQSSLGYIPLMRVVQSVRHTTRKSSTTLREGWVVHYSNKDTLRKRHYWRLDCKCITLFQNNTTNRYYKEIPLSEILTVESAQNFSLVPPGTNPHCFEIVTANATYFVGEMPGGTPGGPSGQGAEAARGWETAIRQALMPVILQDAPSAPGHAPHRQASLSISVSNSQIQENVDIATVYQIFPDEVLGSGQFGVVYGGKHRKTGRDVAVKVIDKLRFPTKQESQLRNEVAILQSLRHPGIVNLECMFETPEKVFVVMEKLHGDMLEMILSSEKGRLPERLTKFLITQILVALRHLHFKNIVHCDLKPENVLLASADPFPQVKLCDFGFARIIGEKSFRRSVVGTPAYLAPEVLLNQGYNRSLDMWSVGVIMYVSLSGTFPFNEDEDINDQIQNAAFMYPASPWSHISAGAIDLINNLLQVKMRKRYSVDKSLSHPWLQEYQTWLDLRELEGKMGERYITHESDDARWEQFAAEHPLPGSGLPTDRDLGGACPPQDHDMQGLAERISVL

[13] = target: Tyrosine-protein kinase ABL1 (Homo sapiens, UniProt P00519); type: functional
[14] = target: Leucine-rich repeat serine/threonine-protein kinase 2 (Homo sapiens, UniProt Q5S007); type: functional;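 further: value from a broad kinome-wide panel profiling study in which LRRK2 was one of the kinases tested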
[15] = target: MAP kinase-activated protein kinase 3 (Homo sapiens, UniProt Q16644); type: functional;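 further: value comes from a kinome-wide profiling panel in which MAPKAPK3 is one of the panel members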
MAP kinase-activated protein kinase 3, sequence (Q16644 whole entry): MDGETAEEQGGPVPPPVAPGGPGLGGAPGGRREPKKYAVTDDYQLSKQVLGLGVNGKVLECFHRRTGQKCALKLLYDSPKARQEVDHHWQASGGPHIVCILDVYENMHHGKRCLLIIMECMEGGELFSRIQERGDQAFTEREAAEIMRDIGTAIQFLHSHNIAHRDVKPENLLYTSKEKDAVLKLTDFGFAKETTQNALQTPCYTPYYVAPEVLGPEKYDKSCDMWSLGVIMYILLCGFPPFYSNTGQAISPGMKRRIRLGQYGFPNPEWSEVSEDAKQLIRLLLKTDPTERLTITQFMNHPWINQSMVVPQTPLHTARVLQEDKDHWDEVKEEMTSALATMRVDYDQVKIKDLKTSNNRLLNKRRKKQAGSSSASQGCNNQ

[16] = target: Serine/threonine-protein kinase MRCK alpha (Homo sapiens, UniProt Q5VT25); type: functional
[17] = target: Vascular endothelial growth factor receptor 2 (Homo sapiens, UniProt P35968); type: functional
[18] = target: Receptor-type tyrosine-protein kinase FLT3 (Homo sapiens, UniProt P36888); type: functional;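 further: FLT3 was tested as one member of a kinome-wide kinase panel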
[19] = target: Cell division cycle 7-related protein kinase (Homo sapiens, UniProt O00311); type: functional;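 further: value obtained from a kinome-wide kinase panel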
[20] = target: Maternal embryonic leucine zipper kinase (Homo sapiens, UniProt Q14680); type: functional
[21] = target: Fibroblast growth factor receptor 1 (Homo sapiens, UniProt P11362); type: functional
Fibroblast growth factor receptor 1, sequence (P11362 whole entry): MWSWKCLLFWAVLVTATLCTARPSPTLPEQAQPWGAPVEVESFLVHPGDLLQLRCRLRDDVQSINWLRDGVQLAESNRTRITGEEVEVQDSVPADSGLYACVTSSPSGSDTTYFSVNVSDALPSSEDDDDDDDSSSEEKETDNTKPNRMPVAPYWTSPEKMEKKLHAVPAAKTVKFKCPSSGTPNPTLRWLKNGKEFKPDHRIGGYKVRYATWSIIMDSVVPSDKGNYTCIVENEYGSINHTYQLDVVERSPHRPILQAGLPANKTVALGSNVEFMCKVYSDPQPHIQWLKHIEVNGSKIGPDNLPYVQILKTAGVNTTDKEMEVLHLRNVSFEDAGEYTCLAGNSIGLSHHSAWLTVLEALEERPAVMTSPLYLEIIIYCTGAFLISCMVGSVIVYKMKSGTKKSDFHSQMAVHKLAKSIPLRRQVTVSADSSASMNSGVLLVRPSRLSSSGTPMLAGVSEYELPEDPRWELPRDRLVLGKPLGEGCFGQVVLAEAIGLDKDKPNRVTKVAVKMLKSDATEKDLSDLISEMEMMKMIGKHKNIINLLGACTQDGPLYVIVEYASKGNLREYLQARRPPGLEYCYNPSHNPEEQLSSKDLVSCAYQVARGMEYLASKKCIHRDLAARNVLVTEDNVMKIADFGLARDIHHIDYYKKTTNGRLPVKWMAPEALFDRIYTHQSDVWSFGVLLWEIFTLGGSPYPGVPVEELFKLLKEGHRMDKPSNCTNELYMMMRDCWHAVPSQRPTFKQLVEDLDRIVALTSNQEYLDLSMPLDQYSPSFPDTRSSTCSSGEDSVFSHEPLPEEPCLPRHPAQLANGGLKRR

[22] = target: Calcium/calmodulin-dependent protein kinase type II subunit gamma (Homo sapiens, UniProt Q13555); type: functional
Calcium/calmodulin-dependent protein kinase type II subunit gamma, sequence (Q13555 whole entry): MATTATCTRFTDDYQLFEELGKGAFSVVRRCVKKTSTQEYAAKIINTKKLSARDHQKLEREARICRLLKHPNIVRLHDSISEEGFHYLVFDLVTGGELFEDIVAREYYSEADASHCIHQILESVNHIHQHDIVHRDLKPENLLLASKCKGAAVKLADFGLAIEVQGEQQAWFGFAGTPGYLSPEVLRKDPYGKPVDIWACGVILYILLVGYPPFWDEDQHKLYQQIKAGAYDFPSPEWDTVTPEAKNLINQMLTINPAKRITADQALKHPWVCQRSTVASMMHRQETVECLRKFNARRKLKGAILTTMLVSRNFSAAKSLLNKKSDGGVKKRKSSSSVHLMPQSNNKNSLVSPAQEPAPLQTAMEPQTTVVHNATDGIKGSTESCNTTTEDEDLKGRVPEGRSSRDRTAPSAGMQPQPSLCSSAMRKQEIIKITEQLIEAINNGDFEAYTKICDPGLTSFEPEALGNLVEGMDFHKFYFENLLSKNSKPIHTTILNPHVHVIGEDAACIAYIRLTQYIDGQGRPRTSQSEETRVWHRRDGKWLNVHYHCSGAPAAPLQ

[23] = target: Interleukin-1 receptor-associated kinase 4 (Homo sapiens, UniProt Q9NWZ3); type: functional
Interleukin-1 receptor-associated kinase 4, sequence (Q9NWZ3 whole entry): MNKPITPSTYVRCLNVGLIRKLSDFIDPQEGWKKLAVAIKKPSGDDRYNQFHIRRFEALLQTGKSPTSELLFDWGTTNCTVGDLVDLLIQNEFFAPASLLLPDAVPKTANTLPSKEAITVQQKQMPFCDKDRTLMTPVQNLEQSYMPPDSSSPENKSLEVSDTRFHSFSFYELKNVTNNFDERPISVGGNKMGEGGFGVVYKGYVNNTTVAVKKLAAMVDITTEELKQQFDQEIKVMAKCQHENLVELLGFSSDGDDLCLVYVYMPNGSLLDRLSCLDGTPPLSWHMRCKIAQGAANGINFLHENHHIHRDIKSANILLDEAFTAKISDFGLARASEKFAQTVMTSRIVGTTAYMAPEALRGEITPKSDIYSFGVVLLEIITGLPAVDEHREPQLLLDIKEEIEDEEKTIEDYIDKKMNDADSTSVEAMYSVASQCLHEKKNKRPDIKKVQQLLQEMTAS

[24] = target: Megakaryocyte-associated tyrosine-protein kinase (Homo sapiens, UniProt P42679); type: functional;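 further: affinity measured as one member of a kinase panel (Navigating the Kinome) against MATK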
Megakaryocyte-associated tyrosine-protein kinase, sequence (P42679 whole entry): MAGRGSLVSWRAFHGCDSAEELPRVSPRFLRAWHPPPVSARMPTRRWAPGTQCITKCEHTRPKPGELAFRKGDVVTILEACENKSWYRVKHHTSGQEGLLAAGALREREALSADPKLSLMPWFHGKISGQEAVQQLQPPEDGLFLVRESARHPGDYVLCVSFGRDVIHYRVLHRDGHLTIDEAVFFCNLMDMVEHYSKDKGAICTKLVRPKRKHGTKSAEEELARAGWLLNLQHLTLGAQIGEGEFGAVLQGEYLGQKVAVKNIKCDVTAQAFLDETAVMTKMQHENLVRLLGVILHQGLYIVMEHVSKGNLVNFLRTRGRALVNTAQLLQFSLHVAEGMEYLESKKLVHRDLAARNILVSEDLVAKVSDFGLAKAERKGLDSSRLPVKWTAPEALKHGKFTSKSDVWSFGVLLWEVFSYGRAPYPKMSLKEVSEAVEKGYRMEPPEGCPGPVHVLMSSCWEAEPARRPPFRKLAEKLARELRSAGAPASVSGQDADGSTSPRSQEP

[25] = target: Activated CDC42 kinase 1 (Homo sapiens, UniProt Q07912); assay: Navigating the Kinome. Panel member name: ACK1; type: functional

**Q.** Which results are given for `C=CCNC1=C(Cl)C(=O)c2ccccc2C1=O`?
**A.** AC50 [1]: 50400 nM (active); IC50 [2]: 9070 nM (active)

**Q.** With `CS(=O)(=O)c1ccc2c(c1)SC1=NC(=O)/C(=C/c3ccc(O)c(O)c3)C(=N)N12` as the compound, how does the IC50 [3] read?
**A.** The IC50 was 113000 nM (not active).

**Q.** And the EC50 [4]?
**A.** The EC50 was 61000 nM (active).

**Q.** With `CCOC(=O)C(C(=O)OCC)c1cc(Br)c2noc3c2c1C(=O)c1ccccc1-3` as the compound, how does the EC50 [5] read?
**A.** The EC50 was 4390 nM (active).

**Q.** And the IC50 [6]?
**A.** The IC50 was 300 nM (active).

**Q.** For `CN(C)c1ccc(-c2nnc(-c3cccs3)o2)cc1`, which IC50 [2] is on record?
**A.** The IC50 was > 100000 nM (inactive).

**Q.** Which results are given for `COc1ccc(C(=O)Nc2n[nH]c3ccc(-c4cn(Cc5ccccc5)nn4)cc23)cc1OC`?
**A.** Ki [7]: 6310 nM (active); Ki [8]: 100 nM (active); Ki [9]: 631 nM (active); Ki [10]: 63.1 nM (active); Ki [11]: 5010 nM (active); Ki [12]: 2000 nM (active); Ki [13]: > 631 nM (inactive); Ki [14]: 501 nM (active); Ki [15]: > 10000 nM (inactive); Ki [16]: 6310 nM (active); Ki [17]: 398 nM (active); Ki [18]: > 1260 nM (inactive); Ki [19]: 1.26 nM (active); Ki [20]: 398 nM (active); Ki [21]: 501 nM (active); Ki [22]: 316 nM (active); Ki [23]: 2510 nM (active); Ki [24]: > 2000 nM (inactive); Ki [25]: > 3980 nM (inactive)
